Values of other authors, collected in publication PMC7464159, “Triple Negative Breast Cancer and Breast Epithelial Cells Differentially Reprogram Glucose and Lipid Metabolism upon Treatment with Triterpenic Acids” (Biomolecules, 2020).

System: MCF-10A cells
Set-up: method as in PMID 29802332, PMID 30684465
Details: previous studies; cited from earlier work

C=C(C)[C@@H]1CC[C@]2(C(=O)O)CC[C@]3(C)[C@H](CC[C@@H]4[C@@]5(C)CC[C@H](O)C(C)(C)[C@@H]5CC[C@]43C)[C@@H]12 [BA, betulinic acid]
influence on MCF-10A cells viability: no influence
